# Values quoted from earlier work in US5855881A, “Mammalian alcohol dehydrogenase and aldehyde dehydrogenase production in plants” (priority 1996, dated 1999).
# Assays:
# [1] = target: human class IV σ-ADH (stomach alcohol dehydrogenase) (Homo sapiens, UniProt P40394)
# [2] = target: T1, human ALDH3 (aldehyde dehydrogenase) (Homo sapiens, UniProt P30838); settings: read-out: Km toward acetaldehyde
# T1 construct: at least five ALDHs that have been purified and characterized from human liver or stomach; host or cells: purified from human liver or stomach (Yin et al. 1993)
# T1 sequence (P30838 1-453): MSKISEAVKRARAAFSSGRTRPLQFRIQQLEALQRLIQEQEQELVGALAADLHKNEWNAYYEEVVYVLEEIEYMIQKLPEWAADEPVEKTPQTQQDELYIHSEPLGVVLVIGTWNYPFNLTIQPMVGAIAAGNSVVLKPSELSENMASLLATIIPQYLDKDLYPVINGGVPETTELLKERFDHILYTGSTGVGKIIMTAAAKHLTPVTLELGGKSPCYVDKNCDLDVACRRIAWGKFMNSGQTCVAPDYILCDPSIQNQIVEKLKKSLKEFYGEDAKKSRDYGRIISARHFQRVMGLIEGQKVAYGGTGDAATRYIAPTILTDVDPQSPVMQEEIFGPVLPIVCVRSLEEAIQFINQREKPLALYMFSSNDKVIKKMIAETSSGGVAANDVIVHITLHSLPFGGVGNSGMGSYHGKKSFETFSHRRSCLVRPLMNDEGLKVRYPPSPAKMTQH
# [3] = target: T2, human cytosolic ALDH1 (aldehyde dehydrogenase) (Homo sapiens, UniProt P00352); settings: read-out: Km toward acetaldehyde
# T2 construct: at least five ALDHs that have been purified and characterized from human liver or stomach; host or cells: purified from human liver or stomach (Yin et al. 1993)
# T2 sequence (P00352 1-501): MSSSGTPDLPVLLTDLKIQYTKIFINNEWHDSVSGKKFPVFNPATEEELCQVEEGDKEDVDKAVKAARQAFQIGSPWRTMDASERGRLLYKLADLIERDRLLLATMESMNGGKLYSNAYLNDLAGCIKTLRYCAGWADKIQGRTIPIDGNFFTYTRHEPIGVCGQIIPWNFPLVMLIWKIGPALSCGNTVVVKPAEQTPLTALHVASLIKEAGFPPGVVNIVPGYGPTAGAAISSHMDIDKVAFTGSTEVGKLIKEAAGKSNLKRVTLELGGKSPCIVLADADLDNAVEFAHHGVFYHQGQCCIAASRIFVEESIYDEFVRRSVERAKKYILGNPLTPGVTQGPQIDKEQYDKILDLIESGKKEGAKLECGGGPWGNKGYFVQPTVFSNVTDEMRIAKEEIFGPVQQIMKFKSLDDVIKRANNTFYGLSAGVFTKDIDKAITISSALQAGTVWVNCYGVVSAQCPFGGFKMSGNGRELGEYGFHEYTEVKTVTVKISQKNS
# [4] = target: T3, human ALDH4 (glutamic γ semialdehyde dehydrogenase, GSDH) (Homo sapiens, UniProt P30038); settings: read-out: Km toward acetaldehyde
# T3 construct: at least five ALDHs that have been purified and characterized from human liver or stomach; host or cells: purified from human liver or stomach (Yin et al. 1993)
# T3 sequence (P30038 25-563): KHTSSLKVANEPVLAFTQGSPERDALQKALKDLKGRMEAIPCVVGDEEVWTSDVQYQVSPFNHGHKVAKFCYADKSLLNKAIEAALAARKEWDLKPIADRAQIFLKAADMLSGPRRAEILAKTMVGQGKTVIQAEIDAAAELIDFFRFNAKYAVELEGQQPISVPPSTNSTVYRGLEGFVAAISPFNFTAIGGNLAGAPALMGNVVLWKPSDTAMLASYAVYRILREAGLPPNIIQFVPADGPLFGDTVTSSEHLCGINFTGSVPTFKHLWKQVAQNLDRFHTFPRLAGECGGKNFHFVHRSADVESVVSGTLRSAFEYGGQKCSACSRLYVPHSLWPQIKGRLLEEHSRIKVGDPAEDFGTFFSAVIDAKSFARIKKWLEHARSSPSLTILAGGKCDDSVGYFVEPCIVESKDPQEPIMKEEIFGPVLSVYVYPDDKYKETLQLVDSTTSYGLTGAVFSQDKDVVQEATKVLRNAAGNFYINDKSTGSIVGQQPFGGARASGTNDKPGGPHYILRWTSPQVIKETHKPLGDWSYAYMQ
# [5] = target: T4, human γ-aminobutyraldehyde dehydrogenase (GABALDH) (Homo sapiens, UniProt P49189); settings: read-out: Km toward acetaldehyde
# T4 construct: γ-aminobutyraldehyde dehydrogenase has been purified from liver; host or cells: purified from human liver (Yin et al. 1993)
# [6] = target: T5, human mitochondrial ALDH2 (aldehyde dehydrogenase) (Homo sapiens, UniProt P05091); settings: read-out: Km toward acetaldehyde
# T5 construct: at least five ALDHs that have been purified and characterized from human liver or stomach; host or cells: purified from human liver or stomach (Yin et al. 1993)
# T5 sequence (P05091 18-517): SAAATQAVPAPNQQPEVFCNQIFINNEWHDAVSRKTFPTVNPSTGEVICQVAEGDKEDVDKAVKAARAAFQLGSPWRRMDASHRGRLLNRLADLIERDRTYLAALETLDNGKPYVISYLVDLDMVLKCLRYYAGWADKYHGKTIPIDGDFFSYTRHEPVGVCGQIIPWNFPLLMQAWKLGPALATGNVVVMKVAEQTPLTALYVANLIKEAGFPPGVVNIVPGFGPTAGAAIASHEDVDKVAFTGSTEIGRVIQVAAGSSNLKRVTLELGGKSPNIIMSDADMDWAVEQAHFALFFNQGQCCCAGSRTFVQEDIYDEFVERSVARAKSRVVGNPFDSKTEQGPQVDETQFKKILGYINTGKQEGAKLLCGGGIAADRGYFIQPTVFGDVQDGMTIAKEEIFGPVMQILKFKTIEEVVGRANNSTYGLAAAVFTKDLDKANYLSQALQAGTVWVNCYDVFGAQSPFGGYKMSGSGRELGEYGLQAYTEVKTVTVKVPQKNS
# Sequence of human class IV σ-ADH (stomach alcohol dehydrogenase) (P40394 14-386 limits assumed): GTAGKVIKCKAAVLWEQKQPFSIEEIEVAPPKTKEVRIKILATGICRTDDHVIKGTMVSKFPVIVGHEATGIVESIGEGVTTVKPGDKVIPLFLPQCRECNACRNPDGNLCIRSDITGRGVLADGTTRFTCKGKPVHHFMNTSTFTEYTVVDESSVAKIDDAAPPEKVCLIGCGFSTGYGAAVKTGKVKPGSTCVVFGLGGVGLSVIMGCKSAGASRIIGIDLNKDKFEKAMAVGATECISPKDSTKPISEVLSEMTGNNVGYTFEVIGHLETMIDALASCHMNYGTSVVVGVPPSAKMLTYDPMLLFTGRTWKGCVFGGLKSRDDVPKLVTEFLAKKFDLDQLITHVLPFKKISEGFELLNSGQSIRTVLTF
# T4 sequence (P49189 whole entry): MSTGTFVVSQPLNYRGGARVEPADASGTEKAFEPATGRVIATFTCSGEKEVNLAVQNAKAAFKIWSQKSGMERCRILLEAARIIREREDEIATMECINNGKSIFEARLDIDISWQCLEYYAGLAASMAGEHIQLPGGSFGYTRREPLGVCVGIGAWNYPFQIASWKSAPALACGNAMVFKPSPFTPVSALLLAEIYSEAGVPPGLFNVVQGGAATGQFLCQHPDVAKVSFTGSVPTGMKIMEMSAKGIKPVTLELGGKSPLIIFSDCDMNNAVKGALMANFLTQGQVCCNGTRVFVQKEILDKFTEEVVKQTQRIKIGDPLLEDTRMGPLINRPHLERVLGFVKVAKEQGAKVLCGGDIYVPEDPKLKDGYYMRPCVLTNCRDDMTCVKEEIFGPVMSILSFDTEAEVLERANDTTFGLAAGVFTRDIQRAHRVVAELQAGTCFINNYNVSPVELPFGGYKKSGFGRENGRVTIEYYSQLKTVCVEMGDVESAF
SMILES,kcat for ethanol oxidation ([1]; enzyme isolated from human stomach tissue) [s⁻¹],kcat value for ethanol ([1]; pH 7.5),"Km ([1]; read-out: Km for ethanol, enzyme isolated from human stomach tissue) [µM]",Km [2] [µM],Km [3] [µM],Km [4] [µM],Km [5] [µM],Km [6] [µM]
CCO [ethanol],16.67 to 25,about 1000,~41000,,,,,
CC=O [acetaldehyde],,,,83000,30,5000,50,3
